{
  "source": "paper PMC6537165",
  "about": "(Slas Discovery, 2019)",
  "system": "Wolbachia pipientis (wAlbB) in C6/36 (wAlbB) cells",
  "assay": "acumen high-throughput anti-Wolbachia assay",
  "format": "cell-based",
  "settings": "C6/36, 168 h, read-out: anti-Wolbachia IC50 in the acumen assay",
  "data": [
    {"molecule": "C[C@H]1c2cccc(O)c2C(=O)C2=C(O)[C@]3(O)C(=O)C(C(N)=O)=C(O)[C@@H](N(C)C)[C@@H]3[C@@H](O)[C@@H]21", "note": "[Doxycycline, doxycycline]", "values": [
      {"measurement": "IC50", "result": 17.8, "unit": "nM"}
    ]}
  ]
}
